The values below come from patent US20240150377A1, “MODULATORS OF CYSTIC FIBROSIS TRANSMEMBRANE CONDUCTANCE REGULATOR” (VERTEX PHARMACEUTICALS INCORPORATED, priority 2020, published 2024).

The structures appear in SMILES notation. Where two headings read alike, the source gives them in different places.

The target of one assay is T1, F508del (Homo sapiens, UniProt P13569, DEL508-508).
T1 construct: expressed in transfected cells
Description: 3T3 assay: membrane potential optical assay for F508del correction. Format: cell-based. Particulars: F508del NIH 3T3 cells; for Emax: NIH3T3, compared to lumacaftor in combination with acutely added 300 nM Ivacaftor, read-out: 3T3 Max Activity; for EC50: 18-24 hours at 37° C., forskolin, acutely added 300 nM Ivacaftor. The text has this: 1. Membrane Potential Optical Methods for Assaying F508del Modulation Properties of Compounds
The assay utilizes fluorescent voltage sensing dyes to measure changes in membrane potential using a fluorescent plate reader (e.g., FLIPR III, Molecular Devices, Inc.) as a readout for increase in functional F508del in NIH 3T3 cells. The driving force for the response is the creation of a chloride ion gradient in conjunction with channel activation by a single liquid addition step after the cells have previously been treated with compounds and subsequently loaded with a voltage sensing dye.
2. Identification of Corrector Compounds
To identify correctors of F508del, a single-addition HTS assay format was developed. This HTS assay utilizes fluorescent voltage sensing dyes to measure changes in membrane potential on the FLIPR III as a measurement for increase in gating (conductance) of F508del in F508del NIH 3T3 cells. The F508del NIH 3T3 cell cultures were incubated with the corrector compounds at a range of concentrations for 18-24 hours at 37° C., and subsequently loaded with a redistribution dye. The driving force for the response is a Cl^− ion gradient in conjunction with channel activation with forskolin in a single liquid addition step using a fluorescent plate reader such as FLIPR III.
Bath Solution #1: (in mM) NaCl 160, KCl 4.5, CaCl2) 2, MgCl2 1, HEPES 10, pH 7.4 with NaOH.
Chloride-free bath solution: Chloride salts in Bath Solution #1 (above) are substituted with gluconate salts.
NIH3T3 mouse fibroblasts stably expressing F508del are used for optical measurements of membrane potential. The cells are maintained at 37° C. in 5% CO2 and 90% humidity in Dulbecco's modified Eagle's medium supplemented with 2 mM glutamine, 10% fetal bovine serum, 1× NEAA, b-ME, 1×pen/strep, and 25 mM HEPES in 175 cm^2 culture flasks. For all optical assays, the cells were seeded at ˜20,000/well in 384-well Matrigel-coated plates. For the correction assays, the cells are cultured at 37° C. with and without compounds for 16-24 hours.

Another assay deals with CFTR (Homo sapiens, UniProt P13569). As to the kind of experiment: Membrane potential dye, Enteroid Assay A. Format: cell-based. Particulars: for Ent. A Max Activity: chloride transport as % of triple combination control (Enteroid Assay A); for EC50: human enteroid cells, 18-24 hours, acute 10 μM forskolin and 300 nM ivacaftor, read-out: Ent. A EC50. Put shortly: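 Human intestinal enteroids incubated 18-24 h at 37 °C with test compound, then loaded with 20 μM methyl oxonol (with CaCC inhibitors). Chloride transport triggered in chloride-free buffer with 10 μM forskolin, 100 μM IBMX, 300 nM Compound III; fluorescence read 15 min, expressed as % of a triple-combination corrector/potentiator control.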
Sequence of CFTR (P13569 with tags, fused parts or gaps DEL508-508): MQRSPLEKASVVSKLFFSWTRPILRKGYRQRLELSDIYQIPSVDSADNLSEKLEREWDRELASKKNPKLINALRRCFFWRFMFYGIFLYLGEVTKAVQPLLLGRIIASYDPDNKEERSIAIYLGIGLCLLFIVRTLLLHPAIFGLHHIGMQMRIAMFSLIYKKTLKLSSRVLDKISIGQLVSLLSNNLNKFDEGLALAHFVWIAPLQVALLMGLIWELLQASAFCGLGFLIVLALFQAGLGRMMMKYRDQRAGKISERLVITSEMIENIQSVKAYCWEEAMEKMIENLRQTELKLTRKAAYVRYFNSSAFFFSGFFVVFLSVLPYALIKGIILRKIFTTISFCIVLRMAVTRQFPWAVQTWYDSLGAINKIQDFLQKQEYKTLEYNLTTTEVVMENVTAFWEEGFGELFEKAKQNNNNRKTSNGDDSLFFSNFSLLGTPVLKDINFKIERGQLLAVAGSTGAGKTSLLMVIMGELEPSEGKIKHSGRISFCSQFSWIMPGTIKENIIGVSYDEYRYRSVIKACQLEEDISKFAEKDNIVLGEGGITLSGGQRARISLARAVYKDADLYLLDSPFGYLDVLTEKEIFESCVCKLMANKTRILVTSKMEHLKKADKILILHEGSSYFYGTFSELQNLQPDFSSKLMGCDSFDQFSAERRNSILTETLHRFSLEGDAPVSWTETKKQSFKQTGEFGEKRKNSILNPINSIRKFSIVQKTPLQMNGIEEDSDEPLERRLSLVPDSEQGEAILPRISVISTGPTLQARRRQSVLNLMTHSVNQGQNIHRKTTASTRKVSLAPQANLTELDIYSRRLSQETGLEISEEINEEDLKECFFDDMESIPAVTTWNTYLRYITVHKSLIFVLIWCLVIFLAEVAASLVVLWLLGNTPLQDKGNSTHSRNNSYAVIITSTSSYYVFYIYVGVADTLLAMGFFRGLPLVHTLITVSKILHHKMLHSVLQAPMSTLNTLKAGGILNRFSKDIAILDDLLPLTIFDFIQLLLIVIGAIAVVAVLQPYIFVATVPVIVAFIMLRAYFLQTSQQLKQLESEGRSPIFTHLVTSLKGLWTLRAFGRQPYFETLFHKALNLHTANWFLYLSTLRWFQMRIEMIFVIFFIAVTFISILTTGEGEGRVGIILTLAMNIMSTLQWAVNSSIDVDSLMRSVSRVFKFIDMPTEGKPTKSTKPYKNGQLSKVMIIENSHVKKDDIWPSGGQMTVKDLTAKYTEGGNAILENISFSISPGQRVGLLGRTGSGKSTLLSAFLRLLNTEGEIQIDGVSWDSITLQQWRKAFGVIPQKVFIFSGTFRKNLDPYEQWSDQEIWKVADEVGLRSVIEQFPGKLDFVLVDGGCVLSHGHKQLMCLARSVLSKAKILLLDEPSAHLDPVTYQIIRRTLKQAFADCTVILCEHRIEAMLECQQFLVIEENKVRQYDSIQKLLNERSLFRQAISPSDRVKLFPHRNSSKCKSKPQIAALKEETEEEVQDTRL

T1 sequence (P13569 with tags, fused parts or gaps DEL508-508): as above

Consider `Cc1cccc(C)c1-c1cc2nc(n1)NS(=O)(=O)c1cccc(c1)CN(Cc1cccc3c1OC(F)(F)O3)[C@H](CC(C)C)CO2` [Compound 1029], for which, at F508del (Table 7), the Emax is more than 60% and the EC50 (as a rule, the concentration that produces a half-maximal response) was less than 1000 nM. Further, at CFTR (Table 7), the “Ent. A Max Activity” value was “++ (++ is 30-60%)” and the EC50 is less than 1000 nM.

On to `Cc1cccc(C)c1-c1cc2nc(n1)NS(=O)(=O)c1cccc(c1)C(=O)N(CCC(C)C)[C@H](CCC1(C(F)(F)F)CC1)CO2` [Compound 850], for which, at F508del (Table 6), the Emax is more than 60% and the EC50 is less than 1000 nM. Besides, at CFTR (Table 6), the “Ent. A Max Activity” value is “+++ (+++ is >60%)” and the EC50 was less than 1000 nM.

On to `Cc1cccc(C)c1-c1cc2nc(n1)NS(=O)(=O)c1cccc(c1)C(=O)N(C)C[C@@H](c1ccc(C(C)(C)C)cn1)O2` (single isomer, unassigned) [Compound 102, 10-(5-tert-butyl-2-pyridyl)-6-(2,6-dimethylphenyl)-12-methyl-2,2-dioxo-9-oxa-2λ^6-thia-3,5,12,19-tetrazatricyclo[12.3.1.14,8]nonadeca-1(18),4(19),5,7,14,16-hexaen-13-one], for which, on F508del (Table 7), the Emax is more than 60% and the EC50 was less than 1000 nM. In addition, on CFTR (Table 7), the “Ent. A Max Activity” value is given as “+ (+ is <30%)” and the EC50 was in the range of 1000 to 3000 nM.

As to `Cc1cccc(C)c1-c1cc2nc(n1)NS(=O)(=O)c1cccc(c1)C(=O)N(CC(C)C)[C@H](CC(C)C)CO2` [Compound 865], on F508del (Table 6), the Emax is more than 60% and the EC50 is less than 1000 nM. Further, at CFTR (Table 6), the “Ent. A Max Activity” value is “+++ (+++ is >60%)” and the EC50 was less than 1000 nM.

On to `CCCCCN1C(=O)c2cccc(c2)S(=O)(=O)Nc2nc(cc(-c3c(C)cccc3C)n2)OC[C@H]1CC(C)C` [Compound 362], for which, on F508del (Table 6), the Emax is more than 60% and the EC50 was less than 1000 nM. At CFTR (Table 6), the “Ent. A Max Activity” value is “+++ (+++ is >60%)” and the EC50 is less than 1000 nM.

Take `Cc1cccc(C)c1-c1cc2nc(n1)NS(=O)(=O)c1cccc(c1)C(=O)N(C)[C@H](CC(C)C)CO2` [Compound 71, (11R)-6-(2,6-Dimethylphenyl)-12-methyl-11-(2-methylpropyl)-9-oxa-2λ^6-thia-3,5,12,19-tetraazatricyclo[12.3.1.14,8]nonadeca-1(18),4(19),5,7,14,16-hexaene-2,2,13-trione]: on F508del (Table 6), the Emax was more than 60% and the EC50 was less than 1000 nM. Besides, on CFTR (Table 6), the “Ent. A Max Activity” value is “+++ (+++ is >60%)” and the EC50 was less than 1000 nM.

For the molecule `Cc1cccc(C)c1-c1cc2nc(n1)NS(=O)(=O)c1cccc(c1)CN(Cc1ccnnc1)[C@H](CC(C)C)CO2` [Compound 47, (11R)-6-(2,6-dimethylphenyl)-11-(2-methylpropyl)-12-[(pyridazin-4-yl)methyl]-9-oxa-2λ^6-thia-3,5,12,19-tetraazatricyclo[12.3.1.14,8]nonadeca-1(17),4,6,8(19),14(18),15-hexaene-2,2-dione], at F508del (Table 7), the Emax is more than 60% and the EC50 was less than 1000 nM. Moreover, at CFTR (Table 7), the “Ent. A Max Activity” value is reported as “+++ (+++ is >60%)” and the EC50 was less than 1000 nM.

Consider `Cc1cccc(C)c1-c1cc2nc(n1)NS(=O)(=O)c1cccc(c1)C(=O)N(C)C[C@H](c1ccc(C3CC3)cc1)O2` [Compound 669], for which, at F508del (Table 7), the Emax was more than 60% and the EC50 is less than 1000 nM. Moreover, on CFTR (Table 7), the “Ent. A Max Activity” value is recorded as “++ (++ is 30-60%)” and the EC50 is less than 1000 nM.

With `Cc1cccc(C)c1-c1cc2nc(n1)NS(=O)(=O)c1cccc(c1)C(=O)N(CCO)[C@H](CC(C)C)CO2` [Compound 80, (11R)-6-(2,6-Dimethylphenyl)-12-(2-hydroxyethyl)-11-isobutyl-2,2-dioxo-9-oxa-2λ^6-thia-3,5,12,19-tetrazatricyclo[12.3.1.14,8]nonadeca-1(18),4(19),5,7,14,16-hexaen-13-one], at F508del (Table 6), the Emax was more than 60% and the EC50 is less than 1000 nM. Also, on CFTR (Table 6), the “Ent. A Max Activity” value is listed as “+++ (+++ is >60%)” and the EC50 is less than 1000 nM.

For the molecule `CC(=O)N1CCC(CCN2C(=O)c3cccc(c3)S(=O)(=O)Nc3nc(cc(-c4c(C)cccc4C)n3)OC[C@H]2CC(C)C)CC1` [Compound 1107], at F508del (Table 7), the Emax is more than 60% and the EC50 was less than 1000 nM. For the same molecule, at CFTR (Table 7), the “Ent. A Max Activity” value is “+++ (+++ is >60%)” and the EC50 is less than 1000 nM.

`Cc1cccc(C)c1-c1cc2nc(n1)NS(=O)(=O)c1cccc(c1)C(=O)N(CCC1CCN(C)CC1)[C@H](CC(C)C)CO2` [Compound 418]: on F508del (Table 6), the Emax is more than 60% and the EC50 was less than 1000 nM. Also, at CFTR (Table 6), the “Ent. A Max Activity” value is listed as “+++ (+++ is >60%)” and the EC50 is less than 1000 nM.

On to `Cc1cccc(C)c1-c1cc2nc(n1)NS(=O)(=O)c1cccc(c1)C(=O)N(C)[C@H](C)[C@H](c1ccc(C(C)(C)C)cc1)O2` [Compound 338], for which, on F508del (Table 6), the Emax was more than 60% and the EC50 is less than 1000 nM. Besides, the “Ent. A Max Activity” value at CFTR (Table 6) is reported as “+ (+ is <30%)”.

In the case of `Cc1cccc(C)c1-c1cc2nc(n1)NS(=O)(=O)c1cccc(c1)C(=O)N(Cc1ccccc1)CC(c1ccccc1)O2` (stereo in doubt) [Compound 18, (10R)-12-Benzyl-6-(2,6-dimethylphenyl)-2,2-dioxo-10-phenyl-9-oxa-2λ^6-thia-3,5,12,19-tetrazatricyclo[12.3.1.14,8]nonadeca-1(18),4(19),5,7,14,16-hexaen-13-one], at F508del (Table 6), the Emax was more than 60% and the EC50 was less than 1000 nM. Besides, at CFTR (Table 6), the “Ent. A Max Activity” value is listed as “+++ (+++ is >60%)” and the EC50 was less than 1000 nM.

`Cc1cccc(C)c1-c1cc2nc(n1)NS(=O)(=O)c1cccc(c1)C(=O)N(Cc1ccc(N3CCCCC3)nc1)[C@H](CC(C)C)CO2` [Compound 974]: on F508del (Table 7), the Emax is more than 60% and the EC50 is less than 1000 nM. Besides, on CFTR (Table 7), the “Ent. A Max Activity” value is listed as “+++ (+++ is >60%)” and the EC50 was less than 1000 nM.

On to `Cc1cccc(C)c1-c1cc2nc(n1)NS(=O)(=O)c1cccc(c1)C(=O)N(C)[C@H](C)[C@@H](c1ccc(C(C)(C)C)cc1)O2` [Compound 339], for which, at F508del (Table 6), the Emax is more than 60% and the EC50 was less than 1000 nM. For the same molecule, on CFTR (Table 6), the “Ent. A Max Activity” value is “++ (++ is 30-60%)” and the EC50 is less than 1000 nM.

Consider `Cc1cccc(C)c1-c1cc2nc(n1)NS(=O)(=O)c1cccc(c1)C(=O)N(C)[C@H](CC1CCCCC1)O2` [Compound 1193], for which, on F508del (Table 6), the Emax was more than 60% and the EC50 was less than 1000 nM. For the same molecule, on CFTR (Table 6), the “Ent. A Max Activity” value was “+++ (+++ is >60%)” and the EC50 is less than 1000 nM.

In the case of `Cc1cccc(C)c1-c1cc2nc(n1)NS(=O)(=O)c1cccc(c1)C(=O)N(CCC1CCOCC1)[C@H](CCC1(C(F)(F)F)CC1)CO2` (single isomer, unassigned) [Compound 72, 6-(2,6-Dimethylphenyl)-2,2-dioxo-12-(2-tetrahydropyran-4-ylethyl)-11-[2-[1-(trifluoromethyl)cyclopropyl]ethyl]-9-oxa-2λ^6-thia-3,5,12,19-tetrazatricyclo[12.3.1.14,8]nonadeca-1(18),4(19),5,7,14,16-hexaen-13-one], on F508del (Table 6), the Emax was more than 60% and the 50% effective concentration (EC50) is less than 1000 nM. In addition, on CFTR (Table 6), the “Ent. A Max Activity” value is “+++ (+++ is >60%)” and the EC50 was less than 1000 nM.

For `Cc1cccc(C)c1-c1cc2nc(n1)NS(=O)(=O)c1cccc(c1)CN(CCCC1(C(F)(F)F)CC1)[C@H](CC(C)C)CO2` [Compound 1023], at F508del (Table 7), the Emax was more than 60% and the EC50 was less than 1000 nM. Besides, at CFTR (Table 7), the “Ent. A Max Activity” value is reported as “++ (++ is 30-60%)” and the EC50 was less than 1000 nM.
